From patent US20070259895A1, “MGluR5 modulators VI” (AstraZeneca AB, priority 2006, published 2007)
pIC50: −log10 of the molar value.

Key:
[1] = Determination of brain to plasma ratio in rat; type: in vivo, female Sprague Dawley rats; conditions: female, Sprague-Dawley, brain and plasma, read-out: Brain to Plasma Ratio of compound in Rat
Description: Brain to plasma ratios are estimated in female Sprague Dawley rats. The compound is dissolved in water or another appropriate vehicle. For determination of brain to plasma ratio the compound is administrated as a subcutaneous, or an intravenous bolus injection, or an intravenous infusion, or an oral administration. At a predetermined time point after the administration a blood sample is taken with cardiac puncture. The rat is terminated by cutting the heart open, and the brain is immediately retained. The blood samples are collected in heparinized tubes and centrifuged within 30 minutes, in order to separate the plasma from the blood cells. The plasma is transferred to 96-well plates and stored at −20° C. until analysis. The brains are divided in half, and each half is placed in a pre-tarred tube and stored at −20° C. until analysis. Prior to the analysis, the brain samples are thawed and 3 ml/g brain tissue of distilled water is added to the tubes. The brain samples are sonicated in an ice bath until the samples are homogenized. Both brain and plasma samples are precipitated with acetonitrile. After centrifugation, the supernatant is diluted with 0.2% formic acid. […] After reconstitution of the residuals the samples are ready for injection onto the HPLC column.

human mGluR5d = molecular target: T1, human mGluR5d (Homo sapiens, UniProt P41594); experiment: FLIPR assay, mobilization of intracellular calcium in cells expressing mGluR5d; type: cell-based
T1 construct: expressed in transfected cells; The IP3 assay uses GHEK cells stably expressing human mGluR5d
Source text: The properties of the compounds of the invention can be analyzed using standard assays for pharmacological activity. Examples of glutamate receptor assays are well known in the art as described in for example Aramori et al, Neuron 8:757 (1992), Tanabe et al., Neuron 8:169 (1992), Miller et al., J. Neuroscience 15: 6103 (1995), Balazs, et al., J. Neurochemistry 69:151 (1997). The methodology described in these publications is incorporated herein by reference. Conveniently, the compounds of the invention can be studied by means of an assay (FLIPR) that measures the mobilization of intracellular calcium, [Ca^2+]i in cells expressing mGluR5 or another assay (IP3) that measures inositol phosphate turnover.
Cells expressing human mGluR5d as described in WO97/05252 are seeded at a density of 100,000 cells per well on collagen coated clear bottom 96-well plates with black sides and experiments are done 24 h following seeding. […] The fluorescence signal is sampled 50 times at 1 second intervals followed by 3 samples at 5 second intervals immediately after each of the two additions. Responses are measured as the difference between the peak height of the response to agonist, less the background fluorescence within the sample period. […]

T1 sequence (P41594 21-942 isoform P41594-3 limits assumed): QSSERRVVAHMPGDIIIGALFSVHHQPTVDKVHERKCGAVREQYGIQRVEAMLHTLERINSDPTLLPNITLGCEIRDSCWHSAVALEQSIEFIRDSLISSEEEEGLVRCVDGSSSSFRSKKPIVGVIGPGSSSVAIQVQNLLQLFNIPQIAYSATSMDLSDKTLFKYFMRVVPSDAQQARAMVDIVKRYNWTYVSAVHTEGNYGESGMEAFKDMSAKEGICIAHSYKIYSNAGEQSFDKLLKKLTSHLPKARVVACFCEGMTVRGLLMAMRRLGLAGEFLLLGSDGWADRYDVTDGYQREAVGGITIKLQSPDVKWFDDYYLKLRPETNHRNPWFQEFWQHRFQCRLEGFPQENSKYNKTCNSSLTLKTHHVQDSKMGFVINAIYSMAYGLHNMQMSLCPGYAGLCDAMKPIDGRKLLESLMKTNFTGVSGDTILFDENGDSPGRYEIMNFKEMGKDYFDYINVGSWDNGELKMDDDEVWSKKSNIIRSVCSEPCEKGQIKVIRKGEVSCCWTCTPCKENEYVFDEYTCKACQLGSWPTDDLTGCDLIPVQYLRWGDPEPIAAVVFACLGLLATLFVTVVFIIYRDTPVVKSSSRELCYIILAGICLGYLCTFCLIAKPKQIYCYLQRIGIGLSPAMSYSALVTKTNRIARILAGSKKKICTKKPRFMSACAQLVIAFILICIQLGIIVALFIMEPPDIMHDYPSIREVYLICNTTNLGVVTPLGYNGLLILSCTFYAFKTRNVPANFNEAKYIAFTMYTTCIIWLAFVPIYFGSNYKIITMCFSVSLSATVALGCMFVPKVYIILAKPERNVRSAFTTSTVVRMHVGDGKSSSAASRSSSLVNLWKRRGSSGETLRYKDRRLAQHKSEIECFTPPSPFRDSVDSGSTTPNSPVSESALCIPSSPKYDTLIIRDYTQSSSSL

Kp [1]: 0.36
pIC50 (human mGluR5d): 7.29
SMILES: COc1cc(-c2nnc3n2CCCN3Cc2cc(-c3cccc(Cl)c3)on2)ccn1 [Example 11.2, 8-{[5-(3-Chlorophenyl)isoxazol-3-yl]methyl}-3-(2-methoxypyridin-4-yl)-5,6,7,8-tetrahydro[1,2,4]triazolo[4,3-a]pyrimidine]
